Source: patent US4356183A, “Antihypertensive 4-thiazolidinecarboxylic acids (pyridyl derivatives)” (Santen Pharmaceutical Co., Ltd., priority 1978, dated 1982)

Tests used:
[1] = test system: contractile response of isolated guinea pig ileum to angiotensin I; assay: Inhibition of contractile response of isolated guinea pig ileum to angiotensin I; assay type: cell-based; details: Cavia porcellus, angiotensin I 0.1 μg/ml; compound added 5 min before; 30° C.; read-out: Angiotensin I IC50 (50% inhibition of angiotensin I activity inducing the contraction of guinea pig ileum)
[2] = molecular target: T1, angiotensin I-converting enzyme (Oryctolagus cuniculus, UniProt P12822); assay: Inhibition of angiotensin I-converting enzyme by spectrophotometry (HHL substrate); assay type: biochemical; details: enzyme from rabbit lung; 5 mM HHL; pH 8.3; 37° C., 30 min
T1 construct: angiotensin I-converting enzyme extracted from rabbit lung; from tissue; host or cells: rabbit lung
T1 sequence (P12822 34-1310): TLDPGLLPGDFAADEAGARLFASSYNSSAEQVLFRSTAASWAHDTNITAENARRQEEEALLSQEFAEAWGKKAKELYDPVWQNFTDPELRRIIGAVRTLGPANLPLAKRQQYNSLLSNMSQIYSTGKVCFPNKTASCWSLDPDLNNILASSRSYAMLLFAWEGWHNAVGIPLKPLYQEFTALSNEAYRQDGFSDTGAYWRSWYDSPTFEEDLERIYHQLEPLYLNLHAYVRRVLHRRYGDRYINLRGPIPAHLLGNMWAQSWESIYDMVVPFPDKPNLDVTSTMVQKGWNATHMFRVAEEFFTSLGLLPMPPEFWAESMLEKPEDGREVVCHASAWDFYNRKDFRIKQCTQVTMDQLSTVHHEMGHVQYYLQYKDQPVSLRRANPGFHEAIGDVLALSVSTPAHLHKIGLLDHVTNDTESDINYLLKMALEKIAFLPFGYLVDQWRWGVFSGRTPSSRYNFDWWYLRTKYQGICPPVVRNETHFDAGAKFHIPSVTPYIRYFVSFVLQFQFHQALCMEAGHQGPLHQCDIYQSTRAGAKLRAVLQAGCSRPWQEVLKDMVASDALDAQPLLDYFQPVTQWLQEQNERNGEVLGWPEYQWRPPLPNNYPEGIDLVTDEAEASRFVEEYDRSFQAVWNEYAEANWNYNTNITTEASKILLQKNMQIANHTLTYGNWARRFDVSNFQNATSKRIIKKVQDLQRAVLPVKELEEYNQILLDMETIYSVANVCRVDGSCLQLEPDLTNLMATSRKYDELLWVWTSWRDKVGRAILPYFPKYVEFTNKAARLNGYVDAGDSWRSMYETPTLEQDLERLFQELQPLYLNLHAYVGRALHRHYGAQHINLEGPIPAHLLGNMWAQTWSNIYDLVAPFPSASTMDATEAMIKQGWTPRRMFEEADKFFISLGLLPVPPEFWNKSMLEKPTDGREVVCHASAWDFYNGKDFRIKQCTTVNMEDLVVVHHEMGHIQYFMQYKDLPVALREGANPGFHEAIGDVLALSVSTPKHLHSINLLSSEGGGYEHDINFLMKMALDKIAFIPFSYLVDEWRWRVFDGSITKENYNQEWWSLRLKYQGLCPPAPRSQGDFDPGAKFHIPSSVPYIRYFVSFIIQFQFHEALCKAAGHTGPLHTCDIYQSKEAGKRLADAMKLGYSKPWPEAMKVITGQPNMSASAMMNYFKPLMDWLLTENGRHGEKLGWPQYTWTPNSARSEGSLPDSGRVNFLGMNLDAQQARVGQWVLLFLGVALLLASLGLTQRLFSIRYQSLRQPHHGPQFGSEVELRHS

[3] = test system: pressor response to angiotensin I; assay: Inhibition of pressor response to angiotensin I in rats after oral administration; assay type: in vivo, rat (male Wistar); details: angiotensin I 300 ng/kg i.v.; for Inhibition (%) of pressor response to angiotensin I, 5 min / Inhibition (%) of pressor response to angiotensin I, 15 min / Inhibition (%) of pressor response to angiotensin I, 25 min / Inhibition (%) of pressor response to angiotensin I, 35 min / Inhibition (%) of pressor response to angiotensin I, 45 min / Inhibition (%) of pressor response to angiotensin I, 55 min / Inhibition (%) of pressor response to angiotensin I, 65 min / Inhibition (%) of pressor response to angiotensin I, 75 min / Inhibition (%) of pressor response to angiotensin I, 85 min: dose: 3, 45, 49 1.8 mg/kg, 4, 46 1.3, 50 1.4, 76 2.0, 77 1.5; for Inhibition (%) of pressor response to angiotensin I, 95 min: dose: 45, 49 1.8 mg/kg, 4, 46 1.3, 50 1.4, 76 2.0, 77 1.5; for Inhibition (%) of pressor response to angiotensin I, 105 min / Inhibition (%) of pressor response to angiotensin I, 115 min: dose: 45, 49 1.8 mg/kg, 46 1.3, 50 1.4, 76 2.0, 77 1.5

| Compound | IC50 [1] | IC50 [2] | Inhibition (%) of pressor response to angiotensin I, 5 min [3] | Inhibition (%) of pressor response to angiotensin I, 15 min [3] | Inhibition (%) of pressor response to angiotensin I, 25 min [3] | Inhibition (%) of pressor response to angiotensin I, 35 min [3] | Inhibition (%) of pressor response to angiotensin I, 45 min [3] | Inhibition (%) of pressor response to angiotensin I, 55 min [3] | Inhibition (%) of pressor response to angiotensin I, 65 min [3] | Inhibition (%) of pressor response to angiotensin I, 75 min [3] | Inhibition (%) of pressor response to angiotensin I, 85 min [3] | Inhibition (%) of pressor response to angiotensin I, 95 min [3] | Inhibition (%) of pressor response to angiotensin I, 105 min [3] | Inhibition (%) of pressor response to angiotensin I, 115 min [3] |
| --- | --- | --- | --- | --- | --- | --- | --- | --- | --- | --- | --- | --- | --- | --- |
| C[C@H](CS)C(=O)N1C(c2ccccc2O)SC[C@H]1C(=O)O (stereo partly shown) [Compound 50] | 56 nM | 220 nM | 11.1% | 22.7% | 37.6% | 43.9% | 52.6% | 31.7% | 28.1% | 30.5% | 24.3% | 21.1% | 21.7% | 21.5% |
| COc1ccc(C2SC[C@@H](C(=O)O)N2C(=O)[C@H](C)CS)c(O)c1 (stereo partly shown) [Compound 77] | 120 nM | 190 nM | 35.0% | 45.0% | 54.2% | 50.8% | 57.2% | 49.2% | 47.8% | 34.8% | 31.7% | 24.2% | 18.7% | 6.7% |
